Assay results published in patent US20210000981A1, “CONJUGATED POLYCATIONIC POLYMERS, METHODS OF USING THE SAME AND METHODS OF TREATING AUTOIMMUNE DISEASES, INFECTIOUS DISEASES AND ACUTE RADIATION EXPOSURE” (Duke University, priority 2015, published 2021).

What was measured:
[1] = system: NZBW F1 mice; details: mouse, in vivo
[2] = system: TLR; test: TLR reporter cell assays with DNA-polymer complex and LMWH; type: cell-based
Protocol: (§1) DNA in plasmid form was bound to PAMAM-G3 via co-incubation at room temperature. […] LMWH displacement was executed at 60° C. with agitation of the DNA-polymer complex.

[3] = system: DNA in plasmid form; test: Plasmid DNA binding and LMWH displacement, agarose gel; details: 60° C. with agitation
Protocol: Using the biotinylated form of the polymer we have established a protocol to displace the DAMPs that are bound to the polymer using low-molecular weight heparin (LMWH). This method was validated by electrophoretic mobility shift assay (EMSA) and TLR stimulation.
as §1

[4] = system: NA-sensing TLRs (TLR3, 7, 8 and 9); test: Inhibition of nucleic acid based TLR agonists by NASs; details: in vitro and in vivo

In the case of “[NH2(CH2)2NH2]:(G=3); dendri PAMAM(NH2)32 [PAMAM-G3]”, the “maximum tolerated dose (MTD)” value [1] is reported as 100 to 200 mg/kg.
With low-molecular weight heparin [LMWH] the “TLR activation after displacement of DNA from polymer” value [2] was “elevated TLR activation”, the “TLR activation, alone” value [2] was “no activation alone” and the “displacement of DNA from DNA-polymer complex” value [3] was “Displacement of the DNA was also verified”.
protamine sulfate was tested, and the “activities of nucleic acid based TLR agonists (CpG oligos, Poly I:C, ssRNA40/LyoVec)” value [4] was “counteract the activities of multiple nucleic acid based TLR agonists in vitro and in vivo”.
